Read-outs that look alike come from different tables or passages of the source. Non-standard residues stand in square brackets, D forms with d. Residues, ends and D or L forms follow the SMILES beside them. *: point of attachment. F2Pmp = N[C@@H](Cc1ccc(C(F)(F)P(=O)(O)O)cc1)C(=O)O; Pmp = N[C@@H](Cc1ccc(CP(=O)(O)O)cc1)C(=O)O; pY = N[C@@H](Cc1ccc(OP(=O)(O)O)cc1)C(=O)O; X1 = O=C(O)C(C(=O)O)*
Experiments:
full‐length SHP2 [1] = target: T1, full‐length SHP2 (Homo sapiens, UniProt Q06124); test: DiFMUP phosphatase assay, peptide inhibition in the presence of ITIM-[dPEG4]2-ITSM activator; type: biochemical; conditions: for inhibitory activity against SHP2, in words: DiFMUP, 0.5 nM FL SHP2 activated with 26 nM tandem peptide, compared to peptide 21
T1 construct: 1–525) proteins were prepared; His-SUMO3 (pETM11-SUMO3 vector) (N, cleaved yes); made in house; host or cells: E. coli BL21(DE3)
T1 sequence (Q06124 1-525): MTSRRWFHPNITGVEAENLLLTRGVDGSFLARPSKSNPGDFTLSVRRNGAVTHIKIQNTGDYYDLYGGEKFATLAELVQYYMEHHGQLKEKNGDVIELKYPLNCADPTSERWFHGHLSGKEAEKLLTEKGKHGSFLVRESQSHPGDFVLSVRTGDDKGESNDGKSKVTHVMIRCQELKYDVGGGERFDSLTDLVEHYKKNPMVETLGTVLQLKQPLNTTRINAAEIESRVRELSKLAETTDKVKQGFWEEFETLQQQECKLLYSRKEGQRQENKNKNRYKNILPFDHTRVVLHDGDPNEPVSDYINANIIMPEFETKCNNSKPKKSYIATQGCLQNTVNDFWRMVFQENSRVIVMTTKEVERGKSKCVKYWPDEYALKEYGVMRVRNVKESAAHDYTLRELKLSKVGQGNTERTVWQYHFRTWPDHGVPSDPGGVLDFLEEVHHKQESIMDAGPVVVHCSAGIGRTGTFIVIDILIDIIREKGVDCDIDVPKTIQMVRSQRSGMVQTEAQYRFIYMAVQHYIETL
Experimental: (§1) 6. DiFMUP phosphatase assays
SHP2 dephosphorylation of the fluorogenic substrate 6,8-difluoro-4-methylumbiliferyl phosphate (DiFMUP) was measured to evaluate the effect of acetylated peptides on SHP2 activity. Final concentrations of 0.5 nM full-length SHP2, 200 µM DiFMUP (Invitrogen) and 26 nM bisphosphorylated tandem ITIM-[dPEG4]2-ITSM (CASLO ApS) were used, unless stated otherwise, per well in 96-well plates (OptiPlate-96 F Black; PerkinElmer). For peptide activation assays, each well contained 60 µL of reaction buffer (50 mM HEPES pH 7.6, 150 mM NaCl, 1 mM EDTA, 0.05% Tween 20, freshly added 5 mM DTT), 10 µL of SHP2 and 20 µL of the test peptide (0.096 nM – 51.2 µM final concentration). For peptide inhibition assays in the presence of a SHP2 activator, each well contained 40 µL of reaction buffer (50 mM HEPES pH 7.6, 150 mM NaCl, 1 mM EDTA, 0.05% Tween 20, freshly added 5 mM DTT), 10 µL of SHP2 and 40 µL of previously mixed bisphosphorylated tandem ITIM-[dPEG4]2-ITSM activator and test peptide (0.096 nM – 51.2 µM or 0.376 nM – 200 µM final concentration). To obtain the maximal activity, 10 µL of SHP2 and 20 µL of bisphosphorylated tandem ITIM-[dPEG4]2-ITSM activator was added to 60 µL of buffer. Samples were incubated for 20 minutes at room temperature and then 10 µL of DiFMUP was added to each sample, to give a final volume of 100 µL per well. For background subtraction, 10 µL of DiFMUP was added to 80 µL of buffer. The fluorescence was immediately measured on a Synergy H1 Microplate Reader (BioTek) with the excitation and emission monitored at 358 nm and 452 nm, respectively, over 30 minutes. Data were analysed in Excel 2016 by subtracting background values from emission values and calculating the slope of the emission profiles. Data were then further analysed in GraphPad Prism 6 by either: 1) plotting the slope against the peptide concentration and fitting the data to a variable slope model of non-linear regression; or 2) normalising the data to the maximal activity (SHP2 in the presence of ITIM-[dPEG4]2-ITSM; set to 100% activity) to obtain the % activity, plotting the % activity against the peptide concentration and fitting the data to a variable slope model of non-linear regression to obtain the IC50 values. Data are from two or three independent experiments, each performed in […]

full‐length SHP2 [2] = target: T1, full‐length SHP2; test: DiFMUP phosphatase assay, peptide activation (no activator); type: biochemical; conditions: 0.5 nM full-length SHP2, no tandem activator, peptide 0.096 nM – 51.2 µM
Experimental: as §1
SHP2 dephosphorylation of the fluorogenic substrate 6,8-difluoro-4-methylumbiliferyl phosphate (DiFMUP) was measured to evaluate the effect of acetylated peptides on SHP2 activity. Final concentrations of 0.5 nM full-length SHP2, 200 µM DiFMUP (Invitrogen) and 26 nM bisphosphorylated tandem ITIM-[dPEG4]2-ITSM (CASLO ApS) were used, unless stated otherwise, per well in 96-well plates (OptiPlate-96 F Black; PerkinElmer). For peptide activation assays, each well contained 60 µL of reaction buffer (50 mM HEPES pH 7.6, 150 mM NaCl, 1 mM EDTA, 0.05% Tween 20, freshly added 5 mM DTT), 10 µL of SHP2 and 20 µL of the test peptide (0.096 nM – 51.2 µM final concentration). For peptide inhibition assays in the presence of a SHP2 activator, each well contained 40 µL of reaction buffer (50 mM HEPES pH 7.6, 150 mM NaCl, 1 mM EDTA, 0.05% Tween 20, freshly added 5 mM DTT), 10 µL of SHP2 and 40 µL of previously mixed bisphosphorylated tandem ITIM-[dPEG4]2-ITSM activator and test peptide (0.096 nM – 51.2 µM or 0.376 nM – 200 µM final concentration). […] The fluorescence was immediately measured on a Synergy H1 Microplate Reader (BioTek) with the excitation and emission monitored at 358 nm and 452 nm, respectively, over 30 minutes. Data were analysed in Excel 2016 by subtracting background values from emission values and calculating the slope of the emission profiles. […]

[3] = test system: full‐length SHP2 or isolated PTP domain; test: EnzChek phosphate assay (peptide as substrate); type: biochemical; conditions: 50 nM full-length SHP2 or PTP domain, peptide 25–800 µM, absorbance 360 nm, three independent experiments
Experimental: 7. EnzChek phosphate assays
The EnzChek Phosphate Assay Kit (Thermo Fisher Scientific), which measures the release of inorganic phosphate generated from an enzymatic reaction, was used to evaluate Ac-ITSM(pTyr) and acetylated peptide 21 as potential substrates of SHP2. A reaction mixture consisting of 43 µL of dH2O, 0.5 µL of 1 M DTT ([…]), 5 µL of 20X reaction buffer, 20 µL of 2-amino-6-mercapto-7-methylpurine riboside (MESG) solution, 1.5 µL of purine nucleoside phosphorylase (PNP) solution and 10 µL of 0.5 µM full-length SHP2 or PTP domain (50 nM final concentration) was added to each well in a 96-well plate (SpectraPlate-96 MB; PerkinElmer). Samples were incubated for 10 minutes at room temperature and then 20 µL of Ac-ITSM(pTyr) or peptide 21 (final concentrations: 800 µM, 400 µM, 200 µM, 100 µM, 25 µM) was added to give a final volume of 100 µL per well. The absorbance was immediately measured at 360 nm on a Synergy H1 Microplate Reader (BioTek).
Data were analysed in GraphPad Prism 6 by plotting the absorbance against the peptide concentration. Data are from three independent experiments, each performed in technical triplicates.

SHP2 C‐SH2 domain = target: T2, SHP2 C‐SH2 domain (Homo sapiens, UniProt Q06124); conditions: ITC, previously reported; read-out: previously reported ITC K D, C‐SH2; cited from earlier work
T2 construct: SHP2 N-SH2 domain (1–105), C-SH2 domain (106–220), PTP domain (224–541) and; His6 (pETM22 vector) (N, cleaved yes); made in house; host or cells: E. coli BL21(DE3)
T2 sequence (Q06124 106-220): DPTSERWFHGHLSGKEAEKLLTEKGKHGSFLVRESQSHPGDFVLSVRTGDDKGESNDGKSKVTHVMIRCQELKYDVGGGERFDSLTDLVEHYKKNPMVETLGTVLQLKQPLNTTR

SHP2 N‐SH2 domain = target: T3, SHP2 N‐SH2 domain (Homo sapiens, UniProt Q06124); conditions: ITC, previously reported; read-out: previously reported ITC K D, N‐SH2; cited from earlier work
T3 construct: SHP2 N-SH2 domain (1–105), C-SH2 domain (106–220), PTP domain (224–541) and; His6 (pETM22 vector) (N, cleaved yes); made in house; host or cells: E. coli BL21(DE3)
T3 sequence (Q06124 1-105): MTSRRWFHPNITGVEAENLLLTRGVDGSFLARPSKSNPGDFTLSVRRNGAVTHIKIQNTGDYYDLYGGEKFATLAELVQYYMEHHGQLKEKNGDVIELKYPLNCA

[4] = 0.5 nM full-length SHP2 activated with 26 nM bisphosphorylated ITIM-[dPEG4]2-ITSM, 200 µM DiFMUP, pH 7.6, 20 min pre-incubation at room temperature, two or three independent experiments in technical triplicates, read-out: IC50 ± SEM (DiFMUP activity assay)

Molecule: CC[C@H](C)[C@H](NC(=O)[C@@H](NC(=O)[C@H](C)NC(=O)[C@H](Cc1ccc(OP(=O)(O)O)cc1)NC(=O)[C@H](CCC(=O)O)NC(=O)[C@@H](NC(=O)[C@H](CCC(N)=O)NC(C)=O)[C@@H](C)O)[C@@H](C)O)C(=O)N[C@@H](CCCCN)C(=O)N[C@@H](Cc1c[nH]cn1)C(=O)N1CCC[C@H]1C(N)=O [peptide 21] (Ac-QTE[pY]ATIKHP-NH2)
- IC50 (full‐length SHP2 [1]; [4]): 1050 ± 502 nM
- SHP2 phosphatase activity with peptide alone (activation) (full‐length SHP2 [2]): activated SHP2 only minimally at the highest peptide concentration
- suitability as substrate of SHP2 (dephosphorylation) [3]: not a good SHP2 substrate

Molecule: CC[C@H](C)[C@H](NC(=O)[C@@H](NC(=O)[C@H](C)NC(=O)[C@H](Cc1ccc(C(F)(F)P(=O)(O)O)cc1)NC(=O)[C@H](CCC(=O)O)NC(=O)[C@@H](NC(=O)[C@H](CCC(N)=O)NC(C)=O)[C@@H](C)O)[C@@H](C)O)C(=O)N[C@@H](CCCCN)C(=O)N[C@@H](Cc1c[nH]cn1)C(=O)N1CCC[C@H]1C(N)=O [peptide 22] (Ac-QTE[F2Pmp]ATIKHP-NH2)
- IC50 (full‐length SHP2 [1]): > 51200 nM
- inhibitory activity against SHP2, in words (full‐length SHP2 [1]): loss of inhibitory activity

Molecule: CC[C@H](C)[C@H](NC(=O)[C@@H](NC(=O)[C@H](C)NC(=O)[C@H](Cc1ccc(CP(=O)(O)O)cc1)NC(=O)[C@H](CCC(=O)O)NC(=O)[C@@H](NC(=O)[C@H](CCC(N)=O)NC(C)=O)[C@@H](C)O)[C@@H](C)O)C(=O)N[C@@H](CCCCN)C(=O)N[C@@H](Cc1c[nH]cn1)C(=O)N1CCC[C@H]1C(N)=O [peptide 23] (Ac-QTE[Pmp]ATIKHP-NH2)
- IC50 ± SEM (DiFMUP activity assay) (full‐length SHP2 [1]; 0.5 nM full-length SHP2 activated with 26 nM bisphosphorylated ITIM-[dPEG4]2-ITSM, 200 µM DiFMUP, pH 7.6, 20 min pre-incubation at room temperature, two or three independent experiments in technical triplicates): No inhibition
- inhibitory activity against SHP2, in words (full‐length SHP2 [1]): loss of inhibitory activity

Molecule: CC[C@H](C)[C@H](NC(=O)[C@@H](NC(=O)[C@H](C)NC(=O)[C@H](Cc1ccc(OC(C(=O)O)C(=O)O)cc1)NC(=O)[C@H](CCC(=O)O)NC(=O)[C@@H](NC(=O)[C@H](CCC(N)=O)NC(C)=O)[C@@H](C)O)[C@@H](C)O)C(=O)N[C@@H](CCCCN)C(=O)N[C@@H](Cc1c[nH]cn1)C(=O)N1CCC[C@H]1C(N)=O [peptide 24] (Ac-QTEY(X1)ATIKHP-NH2)
- IC50 (full‐length SHP2 [1]; [4]): 7820 ± 1950 nM

Molecule: PD‐1 ITSM: PD‐1 immunoreceptor tyrosine‐based switch motif phosphopeptide of the authors' earlier work (ref 11) (EQTEYATIVFP; phospho-Tyr5 (pTyr))
- Kd (SHP2 C‐SH2 domain): 13 nM
- Kd (SHP2 N‐SH2 domain): 167 nM

— article PMC12118337, “Development of a Peptide Inhibitor Targeting the C‐SH2 Domain of the SHP2 Phosphatase” (Chembiochem, 2025)
